Source: patent US20050234073A1, “Methods of inhibiting inflammation” (priority 2003, published 2005)
Marks after values point to notes of the source that are not given here. Each block holds one molecule with its values, some of them ahead of it.

Tests used:
[1] = Hapten-induced (oxazolone) colitis; type: in vivo, mouse
Protocol: The hapten-induced colitis model using oxazolone (4-ethoxymethylene-2-phenyl-2-oxazolin-5-one) as the hapten was established in WT B6 or MTP^flox/floxMx1Cre mice as previously described. Briefly, 6 week-old female mice were injected intraperitoneally with vehicle or 500 μg pIpC at days 1, 3, 5 and 7 followed by application of 200 μl of 3% oxazolone (Sigma-Aldrich, St. Louis, Mo.) in 100% ethanol on the abdomen at day 8. On day 14, mice were anesthetized with tribromo-ethanol (Sigma-Aldrich) and 150 μl of 1% oxazolone in 50% ethanol administered per rectum via a 3.5F catheter. Wasting was monitored until day 18 at which time the mice were sacrificed and tissue samples collected for histological examination. Colonic tissue specimens for histological assessment of colitis were fixed in 10% buffered formalin phosphate and embedded in paraffin, cut into 5 micron thick sections and stained with hematoxylin-eosin. The stained paraffin sections were evaluated by for the following parameters of colitis on a scale of 0 to 3 according to known methods: hypervascularity, mononuclear cell infiltration, crypt hyperplasia, epithelial injury or ulceration, polymorphonuclear cell infiltration or crypt abscesses.
The effect of MTPp gene deletion on the clinicopathologic outcome of oxazolone-induced colitis was examined.

[2] = type: in vivo, mouse
Protocol: αGalCer was kindly provided by Dr. Michael Brenner (Brigham and Women's Hospital, Boston, Mass.). […] Mice were sacrificed and sera from peripheral blood subjected to […] (ALT) or aminoaspartate transferase (AST) assays. The kinetic quantitative determination of ALT in serum was performed by ALT/SGPT LIQUI-UV (Stanbio Laboratory, Boeme, Tex.) according to the manufacture's instructions. Fresh liver samples were collected for macroscopic and microscopic inspection. For microscopic examination, liver tissues were immediately fixed in 10% buffered formalin phosphate and embedded in paraffin, cut into sections and stained with hematoxylin-eosin. The clinical response to a hepatocyte mediated, CD1d-dependent response in vivo was evaluated (Osman, Y. et al. Eur. J. Immunol. 30, 1919-1928 (2000)). […] The latter was evident from the absence of elevations of transaminases (FIG. 2D, panels c and d), macroscopic liver necrosis (FIG. 2E, panel d) or microscopic evidence of hepatitis (FIG. 2F, panel d) in the MTP^flox/floxMx1Cre mice that received αGalCer with prior pIpC treatment.

[3] = target: recombinant murine CD1d, beta2m associated, purified by baculovirus expression system (mouse) (UniProt P11609); assay: cell-based or functional assay
Chain of recombinant murine CD1d, beta2m associated, purified by baculovirus expression system (mouse) (P11609 22-305): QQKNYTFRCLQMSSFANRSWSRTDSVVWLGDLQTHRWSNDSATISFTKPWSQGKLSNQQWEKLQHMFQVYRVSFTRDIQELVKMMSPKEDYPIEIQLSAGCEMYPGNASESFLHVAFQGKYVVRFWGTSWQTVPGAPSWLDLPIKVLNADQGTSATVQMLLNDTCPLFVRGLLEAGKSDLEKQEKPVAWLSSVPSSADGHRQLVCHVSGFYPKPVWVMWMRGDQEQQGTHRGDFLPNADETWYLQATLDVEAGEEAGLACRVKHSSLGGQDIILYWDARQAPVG

[4] = Assessment of plasma lipids and body weight after pIpC treatment; type: in vivo, mouse
Protocol: Female 6-8 week-old of both MTP^pflox/floxMx1Cre mice and WT B6 mice that had been injected intraperitoneally with either PBS as control or 500 μg polyinosinic-polycytidylic ribonucleic acid (pIpC, Sigma, St. Louis, Mo.) in PBS every other day for a total of four doses were sacrificed one or 10 days after the last pIpC injection at which time sera was obtained from peripheral blood. The serum was subjected to total cholesterol and triglyceride assays at the clinical laboratory of Brigham and Women's Hospital (Boston, Mass.).
To further substantiate a direct biochemical relationship between CD1d and MTP, the effects on CD1d expression and function was examined in a conditional MTP-deficient mouse model which contains a “floxed” MTPp gene (MTPp^flox/flox) that had been intercrossed with mice expressing Mx1 promoter controlled, Cre-recombinase (Raabe, M. et al. J. Clin. Invest. 103, 1287-1298 (1999); Bjorkegren, J., Beigneux, A., Bergo, M. O., Maher, J. J. & Young, S. G. J. Biol. Chem. 277, 5476-5483 (2002)). The Mx1 promoter is induced by interferon-inducing substances such as polyinosinic-polycytidylic acid (pIpC) (Raabe, M. et al. J. Clin. Invest. 103, 1287-1298 (1999); Bjorkegren, J., Beigneux, A., Bergo, M. O., Maher, J. J. & Young, S. G. J. Biol. Chem. 277, 5476-5483 (2002); Ralf, K., Schwenk, F., Aguet, M. & Rajewsky, K. Science. 269, 1427-1429 (1995)) such that treatment of MTPp^flox/floxMx1Cre mice with pIpC leads to deletion of the MTPp gene (MTPp^Δ/Δ) primarily within the liver, spleen and intestine providing a degree of tissue specificity to the gene deletion. As previously reported, treatment of 6-10 week old MTPp^flox/floxMx1Cre mice (or MTP^flox/floxMx1Cre mice) with pIpC caused progressive hepatic steatosis (1C) and decreases in serum triglyceride and cholesterol levels (Table 5) in association with decreased MTP mRNA levels as defined by RT-PCR (FIG. 1D) and protein levels (FIG. 1E) in liver and colon.

CD1d = assay: Flow cytometric analysis of CD1d surface expression on splenocytes of pIpC treated mice; type: in vivo, mouse; settings: for Mean fluorescence intensity: CD1d; for Mean fluorescence intensity / % CD1d+: splenocytes
Text: Mouse cells were stained using the following antibodies: FITC-conjugated α-CD1d (1B1, PharMingen); PE-conjugated α-CD11c (HL3, PharMingen); FITC-conjugated α-1-A^d (AMS-32.1, PharMingen); PE-conjugated α-CD69 (H1.2F3, PharMingen); PE-conjugated α-B220 (RA3-6B2, PharMingen). Human cells were stained using: PE-conjugated α-CD83 (550634, PharMingen); FITC-conjugated α-HLA-A,B,C (557348, PharMingen); α-HLA DR,DP,DQ (32381A, PharMingen); α-CD1d (42.1 or 51.1.3); α-mouse IgG+IgM (AMI1708, Biosource, Camarillo, Calif.). Staining was performed in the presence of Via-Probe (PharMingen) and analyzed with a FACSort flow cytometer (Becton Dickinson).

[5] = C57BL/6J mice, 1 day after treatment
[6] = C57BL/6J mice, 10 days after treatment
[7] = MTPflox/floxMx1Cre mice, 1 day after treatment
[8] = MTPflox/floxMx1Cre mice, 10 days after treatment

Molecule: CCOC=C1N=C(c2ccccc2)OC1=O [oxazolone, 4-ethoxymethylene-2-phenyl-2-oxazolin-5-one]
colitis induction ([1]; MTPflox/floxMx1Cre mice without pIpC): severe colitis

Molecule: CCCCCCCCCCCCCCCCCCCCCCCCCC(=O)N[C@@H](CO[C@H]1O[C@H](CO)[C@H](O)[C@H](O)[C@H]1O)[C@H](O)[C@H](O)CCCCCCCCCCCCCC [αGalCer, α-galactosylceramide]
hepatitis induction ([2]; wild-type C57BL/6J and MTPflox/floxMx1Cre mice, without pIpC-induced deletion): induced hepatitis

MTP-mediated PE transfer to CD1d [3]: 0.4 to 1.6 picomoles | fluorescence of NBD-labeled PE transferred to plate-coated CD1d [3]: 5 fold
Molecule: MTP purified from rat liver (from UniProt D4A1W8 22-896; P04785 20-509)

hepatic inflammation ([2]; mouse, in vivo): absence of inflammation
Molecule: polyinosinic-polycytidylic ribonucleic acid [pIpC]
Serum triglycerides [4, 5]: 88.1 ± 6.6 mg/dL | Total S. Cholesterol [4, 5]: 96.2 ± 12.2 mg/dL | Serum triglycerides [4, 6]: 110.0 ± 11.2 mg/dL | Total S. Cholesterol [4, 6]: 127.0 ± 5.8 mg/dL | Serum triglycerides [4, 7]: 52.0 ± 7.5 mg/dL | Total S. Cholesterol [4, 7]: 55.1 ± 9.7 mg/dL | Serum triglycerides [4, 8]: 43.5 ± 7.3 mg/dL | Total S. Cholesterol [4, 8]: 49.2 ± 3.1 mg/dL | colitis in response to oxazolone ([1]; MTPflox/floxMx1Cre mice pretreated with pIpC): little evidence of colitis | colitis ([1]; WT B6 mice exposed to oxazolone with pIpC administration): not ameliorated | Mean fluorescence intensity (CD1d; B6 mice): 8.0 | Mean fluorescence intensity (CD1d; MTPmx1 mice): 6.2 +/− 0.9* | CD1d expression (CD1d; control wild-type mice injected with pIpC): No reduction | % CD1d+ (CD1d; B6 mice): 42.2% | % CD1d+ (CD1d; MTPmx1 mice): 29.9 +/− 4.7* %
